Data as given in patent publication US8192962B2, “Processes for detecting toxic substances” (Daikin Industries, Ltd., priority 2001, dated 2012).

Tested on: Unknown protein yeast genes
Assay: DNA chip mRNA expression in yeast, unknown protein yeast genes (Table 1)
Type: cell-based, Saccharomyces cerevisiae S288C
Experimental: Yeast (Saccharomyces cerevisiae S288C (α SUC2mal mel gap2 CUP1)) were incubated at 25° C. on YPD medium (yeast extract 1%, polypepton 2%, glucose 2%). One of toxic chemical substances was added to the cells at logarithmic growth phase, and the cells were further incubated for two hours. Cells were cultured without any chemical substance in the same condition, and were used as control. Concentrations of the chemical substances were defined to inhibit the growth of the yeast but not lead to death.
After completion of the incubation, the culture was centrifuged to collect the cells. To the cells, sodium acetate buffer (50 mM sodium acetate, 10 mM EDTA, 1% SDS) was added, and the mixture was shaken at 65° C. for five minutes, followed by returning to room temperature, and obtaining the supernatant, of which the procedures were repeated two times. To the supernatant, ½ amount of a solution of phenol/chloroform was added, and the mixture was centrifuged to give a supernatant, which was added with an equal amount of chloroform, and the mixture was centrifuged to give a supernatant. To the supernatant, an equal amount of isopropanol containing 0.3 M sodium acetate was added, and the mixture was allowed to stand at room temperature for 30 minutes, after which the mixture was centrifuged to give a sediment of the whole RNAs. Seventy % ethanol was added to the sediment, and the mixture was again centrifuged to give a sediment, which was then dried and dissolved in water. mRNA was isolated from the whole RNAs as followings. In view of the fact that a poly A chain is attached to the 3′ terminus of mRNA, a polynucleotide having a poly T structure which was immobilized on the surface of latex beads was used to trap the mRNA, and then the mRNA was washed and eluted with spine column (Oligotex-dT30<Super>mRNA Purification Kit, Takara). Reverse transcription of the mRNA was conducted with a reverse transcriptase (Super Script II Reverse Transcriptase; catalogue No. 18064-014, GibcoBRL) using fluorescence-labeled nucleotides to give cDNAs that were introduced with Cy3-dUTP or Cy5-dUTP during the reverse transcription.
The labeled cDNAs were dissolved in TE buffer (10mM Tris-HCl/1 mM EDTA, pH8.0), and the solution was dropped on the DNA chip containing the whole genes of yeast (DNA Chip Research Inc. Japan) so that the cDNAs were hybridized on the DNA chip at 65° C. for over 12 hours. The fluoresces intensity of the DNA chip was read with a scanner, and the ratio relative to the fluorescence intensity resulting from the absence of chemical substance was estimated as the following, which is shown in Tables 1 to 9: […]

CCCCCCCCCCCCc1ccc(S(=O)(=O)[O-])cc1.[Na+] [(17), sodium dodecylbenzosulfonate]
The level of expressed mRNA in the presence of chemical substance/The level of expressed mRNA in the absence of chemical substance (yeast gene YKL195W, incubated two hours with chemical substance): 1.4 | The level of expressed mRNA in the presence of chemical substance/The level of expressed mRNA in the absence of chemical substance (yeast gene YKR091W, incubated two hours with chemical substance): 1.6 | The level of expressed mRNA in the presence of chemical substance/The level of expressed mRNA in the absence of chemical substance (yeast gene YLR054C, incubated two hours with chemical substance): 1.6 | The level of expressed mRNA in the presence of chemical substance/The level of expressed mRNA in the absence of chemical substance (yeast gene YLR149C, incubated two hours with chemical substance): 1.3 | The level of expressed mRNA in the presence of chemical substance/The level of expressed mRNA in the absence of chemical substance (yeast gene YLR152C, incubated two hours with chemical substance): 1.5 | The level of expressed mRNA in the presence of chemical substance/The level of expressed mRNA in the absence of chemical substance (yeast gene YLR194C, incubated two hours with chemical substance): 1.0 | The level of expressed mRNA in the presence of chemical substance/The level of expressed mRNA in the absence of chemical substance (yeast gene YLR324W, incubated two hours with chemical substance): 1.2 | The level of expressed mRNA in the presence of chemical substance/The level of expressed mRNA in the absence of chemical substance (yeast gene YLR350W, incubated two hours with chemical substance): 1.6 | The level of expressed mRNA in the presence of chemical substance/The level of expressed mRNA in the absence of chemical substance (yeast gene YLR387C, incubated two hours with chemical substance): 1.0 | The level of expressed mRNA in the presence of chemical substance/The level of expressed mRNA in the absence of chemical substance (yeast gene YLR460C): 1.0 | The level of expressed mRNA in the presence of chemical substance/The level of expressed mRNA in the absence of chemical substance (yeast gene YML117W, incubated two hours with chemical substance): 1.1 | The level of expressed mRNA in the presence of chemical substance/The level of expressed mRNA in the absence of chemical substance (yeast gene YMR009W, incubated two hours with chemical substance): 2.7 | The level of expressed mRNA in the presence of chemical substance/The level of expressed mRNA in the absence of chemical substance (yeast gene YMR067C, incubated two hours with chemical substance): 1.0 | The level of expressed mRNA in the presence of chemical substance/The level of expressed mRNA in the absence of chemical substance (yeast gene YMR090W): 1.8 | The level of expressed mRNA in the presence of chemical substance/The level of expressed mRNA in the absence of chemical substance (yeast gene YMR095C, incubated two hours with chemical substance): 1.0 | The level of expressed mRNA in the presence of chemical substance/The level of expressed mRNA in the absence of chemical substance (yeast gene YMR097C, incubated two hours with chemical substance): 1.4 | The level of expressed mRNA in the presence of chemical substance/The level of expressed mRNA in the absence of chemical substance (yeast gene YMR102C, incubated two hours with chemical substance): 2.4 | The level of expressed mRNA in the presence of chemical substance/The level of expressed mRNA in the absence of chemical substance (yeast gene YMR107W, incubated two hours with chemical substance): 1.3 | The level of expressed mRNA in the presence of chemical substance/The level of expressed mRNA in the absence of chemical substance (yeast gene YMR180C, incubated two hours with chemical substance): 1.4 | The level of expressed mRNA in the presence of chemical substance/The level of expressed mRNA in the absence of chemical substance (yeast gene YMR184W, incubated two hours with chemical substance): 1.4 | The level of expressed mRNA in the presence of chemical substance/The level of expressed mRNA in the absence of chemical substance (yeast gene YMR191W, incubated two hours with chemical substance): 1.2 | The level of expressed mRNA in the presence of chemical substance/The level of expressed mRNA in the absence of chemical substance (yeast gene YMR295C, incubated two hours with chemical substance): 2.1 | The level of expressed mRNA in the presence of chemical substance/The level of expressed mRNA in the absence of chemical substance (yeast gene YMR316W, incubated two hours with chemical substance): 6.9 | The level of expressed mRNA in the presence of chemical substance/The level of expressed mRNA in the absence of chemical substance (yeast gene YNL044W, incubated two hours with chemical substance): 3.1 | The level of expressed mRNA in the presence of chemical substance/The level of expressed mRNA in the absence of chemical substance (yeast gene YNL074C, incubated two hours with chemical substance): 1.1 | The level of expressed mRNA in the presence of chemical substance/The level of expressed mRNA in the absence of chemical substance (yeast gene YNL092W, incubated two hours with chemical substance): 1.7 | The level of expressed mRNA in the presence of chemical substance/The level of expressed mRNA in the absence of chemical substance (yeast gene YNL115C, incubated two hours with chemical substance): 1.6 | The level of expressed mRNA in the presence of chemical substance/The level of expressed mRNA in the absence of chemical substance (yeast gene YNL156C, incubated two hours with chemical substance): 1.8 | The level of expressed mRNA in the presence of chemical substance/The level of expressed mRNA in the absence of chemical substance (yeast gene YNL234W, incubated two hours with chemical substance): 1.0 | The level of expressed mRNA in the presence of chemical substance/The level of expressed mRNA in the absence of chemical substance (yeast gene YNL281W, incubated two hours with chemical substance): 0.9 | The level of expressed mRNA in the presence of chemical substance/The level of expressed mRNA in the absence of chemical substance (yeast gene YNL305C, incubated two hours with chemical substance): 1.7 | The level of expressed mRNA in the presence of chemical substance/The level of expressed mRNA in the absence of chemical substance (yeast gene YNR068C, incubated two hours with chemical substance): 1.0 | The level of expressed mRNA in the presence of chemical substance/The level of expressed mRNA in the absence of chemical substance (yeast gene YOL032W, incubated two hours with chemical substance): 1.7 | The level of expressed mRNA in the presence of chemical substance/The level of expressed mRNA in the absence of chemical substance (yeast gene YOL036W, incubated two hours with chemical substance): 1.1 | The level of expressed mRNA in the presence of chemical substance/The level of expressed mRNA in the absence of chemical substance (yeast gene YOL047C, incubated two hours with chemical substance): 1.5 | The level of expressed mRNA in the presence of chemical substance/The level of expressed mRNA in the absence of chemical substance (yeast gene YOL071W, incubated two hours with chemical substance): 1.3 | The level of expressed mRNA in the presence of chemical substance/The level of expressed mRNA in the absence of chemical substance (yeast gene YOL082W, incubated two hours with chemical substance): 1.6 | The level of expressed mRNA in the presence of chemical substance/The level of expressed mRNA in the absence of chemical substance (yeast gene YOL083W, incubated two hours with chemical substance): 1.4 | The level of expressed mRNA in the presence of chemical substance/The level of expressed mRNA in the absence of chemical substance (yeast gene YOL117W, incubated two hours with chemical substance): 1.3 | The level of expressed mRNA in the presence of chemical substance/The level of expressed mRNA in the absence of chemical substance (yeast gene YOL131W, incubated two hours with chemical substance): 1.1 | The level of expressed mRNA in the presence of chemical substance/The level of expressed mRNA in the absence of chemical substance (yeast gene YOL150C): 2.7 | The level of expressed mRNA in the presence of chemical substance/The level of expressed mRNA in the absence of chemical substance (yeast gene YOL162W, incubated two hours with chemical substance): 1.2 | The level of expressed mRNA in the presence of chemical substance/The level of expressed mRNA in the absence of chemical substance (yeast gene YOR019W, incubated two hours with chemical substance): 1.7 | The level of expressed mRNA in the presence of chemical substance/The level of expressed mRNA in the absence of chemical substance (yeast gene YOR197W, incubated two hours with chemical substance): 1.5 | The level of expressed mRNA in the presence of chemical substance/The level of expressed mRNA in the absence of chemical substance (yeast gene YPL087W, incubated two hours with chemical substance): 2.1 | The level of expressed mRNA in the presence of chemical substance/The level of expressed mRNA in the absence of chemical substance (yeast gene YPL196W, incubated two hours with chemical substance): 1.4 | The level of expressed mRNA in the presence of chemical substance/The level of expressed mRNA in the absence of chemical substance (yeast gene YPL206C, incubated two hours with chemical substance): 1.4 | The level of expressed mRNA in the presence of chemical substance/The level of expressed mRNA in the absence of chemical substance (yeast gene YPL222W, incubated two hours with chemical substance): 1.1 | The level of expressed mRNA in the presence of chemical substance/The level of expressed mRNA in the absence of chemical substance (yeast gene YPR023C, incubated two hours with chemical substance): 1.0 | The level of expressed mRNA in the presence of chemical substance/The level of expressed mRNA in the absence of chemical substance (yeast gene YPR151C, incubated two hours with chemical substance): 1.3
